Values quoted from earlier work in patent publication US20260248756A1, “FAT COMPOSITION COMPRISING TRIBUTYRIN AND TRICAPROIN AND ITS USE IN MILK REPLACERS” (Nutreco IP Assets B.V., priority 2023, published 2026).

Q: Which results are given for `CCCC(=O)OCC(COC(=O)CCC)OC(=O)CCC` [tributyrin]?
A: total intake of solid feed (postweaning, tributyrin up to 0.6 wt % of dry matter in CMR): increased total intake of solid feed; body weight compared with calves not fed tributyrin (weaning and postweaning period, 0.6 wt % of dry matter tributyrin in milk replacer): greater body weight
